Laboratory results published in paper PMC13210772, “Dual FLT3/MAPK14 Proteolysis-Targeting Chimera (PROTAC) Induces Potent Acute Myeloid Leukemia Cell Death” (Pharmaceuticals, 2026).

Experiments:
MOLM-13 = tested on: MOLM-13; set-up: method as in PMID 30427680, PMID 34959180, PMID 34694800, PMID 36332882, PMID 38655686; settings: reported FLT3 PROTACs, Figure 1; cited from earlier work
EPHB2 = target: T1, EPHB2 (Homo sapiens, UniProt P29323); test: NanoBRET CELLinib128; format: binding; settings: 1 µM; 100% no effect, 0% complete tracer displacement
T1 construct: Full-length kinase ORF (Promega, Madison, WI, USA) cloned in frame with a NanoLuc-vector was transfected into HEK293T cells; host or cells: HEK293T

HCK = target: T2, HCK (Homo sapiens, UniProt P08631); test: NanoBRET CELLinib128; format: binding; settings: 100% no effect, 0% complete tracer displacement, read-out: Tracer bound
T2 construct: Full-length kinase ORF (Promega, Madison, WI, USA) cloned in frame with a NanoLuc-vector was transfected into HEK293T cells; host or cells: HEK293T
T2 sequence (P08631 whole entry): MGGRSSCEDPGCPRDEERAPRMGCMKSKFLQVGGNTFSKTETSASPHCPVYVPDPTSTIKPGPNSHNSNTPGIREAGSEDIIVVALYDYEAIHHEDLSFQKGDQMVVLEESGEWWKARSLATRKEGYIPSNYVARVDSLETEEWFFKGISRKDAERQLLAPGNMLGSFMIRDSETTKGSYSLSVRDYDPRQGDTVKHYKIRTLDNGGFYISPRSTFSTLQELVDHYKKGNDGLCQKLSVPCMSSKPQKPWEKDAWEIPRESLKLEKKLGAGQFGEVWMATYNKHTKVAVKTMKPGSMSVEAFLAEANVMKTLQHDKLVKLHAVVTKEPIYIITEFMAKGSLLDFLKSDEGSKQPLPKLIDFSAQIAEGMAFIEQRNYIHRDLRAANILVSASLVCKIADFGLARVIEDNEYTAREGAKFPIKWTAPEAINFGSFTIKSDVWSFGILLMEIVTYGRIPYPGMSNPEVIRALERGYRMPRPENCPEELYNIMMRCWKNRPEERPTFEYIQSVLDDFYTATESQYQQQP

MARK2 = target: T3, MARK2 (Homo sapiens, UniProt Q7KZI7); test: NanoBRET CELLinib128; format: binding; settings: 100% no effect, 0% complete tracer displacement, read-out: Tracer bound
T3 construct: Full-length kinase ORF (Promega, Madison, WI, USA) cloned in frame with a NanoLuc-vector was transfected into HEK293T cells; host or cells: HEK293T

ALK = ALK (Homo sapiens, UniProt Q9UM73); test: NanoBRET CELLinib128; settings: read-out: Tracer bound
Chain of ALK (Q9UM73 19-1620): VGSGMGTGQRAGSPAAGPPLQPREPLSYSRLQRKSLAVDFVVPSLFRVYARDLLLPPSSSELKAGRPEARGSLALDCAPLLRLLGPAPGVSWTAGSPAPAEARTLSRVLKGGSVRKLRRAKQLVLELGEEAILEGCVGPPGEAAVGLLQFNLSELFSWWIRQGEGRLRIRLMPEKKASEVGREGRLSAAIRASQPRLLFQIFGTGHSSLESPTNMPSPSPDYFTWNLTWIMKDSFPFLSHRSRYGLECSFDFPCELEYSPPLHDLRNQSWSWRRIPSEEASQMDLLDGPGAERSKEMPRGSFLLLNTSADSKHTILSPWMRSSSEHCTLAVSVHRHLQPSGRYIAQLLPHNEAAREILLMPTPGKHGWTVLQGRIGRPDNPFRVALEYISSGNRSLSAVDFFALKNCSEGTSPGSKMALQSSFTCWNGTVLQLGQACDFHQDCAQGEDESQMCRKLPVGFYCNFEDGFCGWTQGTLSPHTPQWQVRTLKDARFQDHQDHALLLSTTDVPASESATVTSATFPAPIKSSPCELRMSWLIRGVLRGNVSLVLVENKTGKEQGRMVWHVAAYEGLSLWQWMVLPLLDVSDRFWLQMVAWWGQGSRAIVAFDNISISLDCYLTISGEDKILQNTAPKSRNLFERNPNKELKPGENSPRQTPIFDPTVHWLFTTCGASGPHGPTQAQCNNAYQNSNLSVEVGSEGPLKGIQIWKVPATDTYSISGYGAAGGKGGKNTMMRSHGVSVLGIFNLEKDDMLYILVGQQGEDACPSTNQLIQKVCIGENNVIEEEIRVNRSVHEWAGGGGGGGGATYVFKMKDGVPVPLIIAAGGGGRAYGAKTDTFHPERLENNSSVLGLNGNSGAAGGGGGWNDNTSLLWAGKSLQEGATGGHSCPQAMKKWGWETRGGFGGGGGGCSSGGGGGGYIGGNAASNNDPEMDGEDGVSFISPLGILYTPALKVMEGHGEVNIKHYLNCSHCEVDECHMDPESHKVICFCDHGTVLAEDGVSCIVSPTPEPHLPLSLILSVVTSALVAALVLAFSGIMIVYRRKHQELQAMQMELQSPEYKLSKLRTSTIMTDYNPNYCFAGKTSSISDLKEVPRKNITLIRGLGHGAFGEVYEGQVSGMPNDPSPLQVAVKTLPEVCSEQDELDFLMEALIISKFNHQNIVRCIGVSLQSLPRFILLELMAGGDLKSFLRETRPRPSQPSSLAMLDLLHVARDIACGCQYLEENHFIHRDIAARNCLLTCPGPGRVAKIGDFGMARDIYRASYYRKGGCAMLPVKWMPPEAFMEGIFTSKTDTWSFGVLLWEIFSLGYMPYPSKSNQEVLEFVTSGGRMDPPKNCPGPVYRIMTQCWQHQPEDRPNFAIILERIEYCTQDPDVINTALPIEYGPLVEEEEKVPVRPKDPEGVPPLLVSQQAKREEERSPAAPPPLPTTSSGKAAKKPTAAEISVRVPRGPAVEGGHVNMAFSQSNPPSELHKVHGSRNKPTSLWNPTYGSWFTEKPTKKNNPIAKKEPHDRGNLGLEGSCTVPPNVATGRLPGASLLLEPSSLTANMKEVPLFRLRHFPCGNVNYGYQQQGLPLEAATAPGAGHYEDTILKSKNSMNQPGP

DDR1 = DDR1 (Homo sapiens, UniProt Q08345); test: NanoBRET CELLinib128; settings: read-out: Tracer bound
Chain of DDR1 (Q08345 19-913): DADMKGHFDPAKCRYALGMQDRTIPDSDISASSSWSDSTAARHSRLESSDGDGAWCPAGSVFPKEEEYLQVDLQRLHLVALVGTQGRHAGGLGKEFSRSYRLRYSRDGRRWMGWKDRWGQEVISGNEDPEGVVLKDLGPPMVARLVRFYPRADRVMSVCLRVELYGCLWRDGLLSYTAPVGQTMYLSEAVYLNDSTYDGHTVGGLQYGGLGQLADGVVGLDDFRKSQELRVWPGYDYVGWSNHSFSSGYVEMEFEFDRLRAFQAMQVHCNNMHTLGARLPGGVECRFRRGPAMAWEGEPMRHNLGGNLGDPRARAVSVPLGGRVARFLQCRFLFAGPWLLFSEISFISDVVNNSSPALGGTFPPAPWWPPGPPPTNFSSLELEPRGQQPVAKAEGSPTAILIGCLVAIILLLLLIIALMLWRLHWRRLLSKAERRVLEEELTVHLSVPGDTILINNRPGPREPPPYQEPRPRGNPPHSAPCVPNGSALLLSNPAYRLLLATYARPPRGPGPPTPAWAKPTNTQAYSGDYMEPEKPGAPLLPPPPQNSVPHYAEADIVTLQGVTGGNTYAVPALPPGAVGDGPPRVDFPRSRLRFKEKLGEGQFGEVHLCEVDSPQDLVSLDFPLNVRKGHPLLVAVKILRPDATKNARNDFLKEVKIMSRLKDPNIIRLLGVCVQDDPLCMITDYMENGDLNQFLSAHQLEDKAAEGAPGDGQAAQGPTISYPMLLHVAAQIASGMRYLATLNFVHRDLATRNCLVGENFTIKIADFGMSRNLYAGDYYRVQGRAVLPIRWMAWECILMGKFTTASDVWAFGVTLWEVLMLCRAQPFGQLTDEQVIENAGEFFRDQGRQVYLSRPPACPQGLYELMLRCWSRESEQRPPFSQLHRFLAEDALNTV

EPHB1 = EPHB1 (Homo sapiens, UniProt P54762); test: NanoBRET CELLinib128; settings: read-out: Tracer bound
IGF1R = IGF1R (Homo sapiens, UniProt P08069); test: NanoBRET CELLinib128; settings: read-out: Tracer bound
Chain of IGF1R (P08069 31-1367): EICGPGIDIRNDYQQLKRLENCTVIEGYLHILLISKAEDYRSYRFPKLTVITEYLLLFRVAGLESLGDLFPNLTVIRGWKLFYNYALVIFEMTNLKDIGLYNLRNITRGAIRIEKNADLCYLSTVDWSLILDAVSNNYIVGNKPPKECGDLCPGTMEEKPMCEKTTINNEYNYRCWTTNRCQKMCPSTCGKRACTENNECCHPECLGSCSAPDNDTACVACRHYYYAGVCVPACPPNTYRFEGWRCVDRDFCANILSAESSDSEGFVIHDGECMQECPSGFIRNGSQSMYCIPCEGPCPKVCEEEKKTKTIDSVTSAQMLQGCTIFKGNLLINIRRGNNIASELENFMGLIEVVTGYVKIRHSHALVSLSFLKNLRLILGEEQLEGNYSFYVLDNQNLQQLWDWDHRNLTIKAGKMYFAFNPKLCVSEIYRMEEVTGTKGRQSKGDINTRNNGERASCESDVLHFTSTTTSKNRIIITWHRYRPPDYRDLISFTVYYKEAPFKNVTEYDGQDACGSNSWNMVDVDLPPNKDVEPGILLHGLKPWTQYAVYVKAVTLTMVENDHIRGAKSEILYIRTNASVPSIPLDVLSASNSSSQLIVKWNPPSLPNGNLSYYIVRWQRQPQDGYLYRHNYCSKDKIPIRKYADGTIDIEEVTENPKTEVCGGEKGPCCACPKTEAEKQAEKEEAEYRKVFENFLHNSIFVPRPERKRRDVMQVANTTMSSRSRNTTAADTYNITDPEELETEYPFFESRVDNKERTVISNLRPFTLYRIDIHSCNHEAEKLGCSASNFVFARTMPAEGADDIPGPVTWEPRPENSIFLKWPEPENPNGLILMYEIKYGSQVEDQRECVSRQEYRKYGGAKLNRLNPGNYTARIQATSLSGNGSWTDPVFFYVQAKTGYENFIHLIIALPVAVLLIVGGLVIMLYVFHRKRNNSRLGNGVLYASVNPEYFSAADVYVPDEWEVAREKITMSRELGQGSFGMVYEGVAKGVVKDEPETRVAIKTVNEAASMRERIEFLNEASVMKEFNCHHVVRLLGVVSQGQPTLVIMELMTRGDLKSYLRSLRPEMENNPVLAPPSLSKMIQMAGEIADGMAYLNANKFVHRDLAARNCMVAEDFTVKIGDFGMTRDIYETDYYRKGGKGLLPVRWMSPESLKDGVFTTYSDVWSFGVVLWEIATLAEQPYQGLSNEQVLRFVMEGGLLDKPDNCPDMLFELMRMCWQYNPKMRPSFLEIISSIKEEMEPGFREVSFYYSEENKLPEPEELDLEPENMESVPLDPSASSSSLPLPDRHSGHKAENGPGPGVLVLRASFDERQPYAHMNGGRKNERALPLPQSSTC

MAPK11 = MAPK11 (Homo sapiens, UniProt Q15759); test: NanoBRET CELLinib128; settings: read-out: Tracer bound
SRC = SRC (Homo sapiens, UniProt P12931); test: NanoBRET CELLinib128; settings: read-out: Tracer bound
Chain of SRC (P12931 whole entry): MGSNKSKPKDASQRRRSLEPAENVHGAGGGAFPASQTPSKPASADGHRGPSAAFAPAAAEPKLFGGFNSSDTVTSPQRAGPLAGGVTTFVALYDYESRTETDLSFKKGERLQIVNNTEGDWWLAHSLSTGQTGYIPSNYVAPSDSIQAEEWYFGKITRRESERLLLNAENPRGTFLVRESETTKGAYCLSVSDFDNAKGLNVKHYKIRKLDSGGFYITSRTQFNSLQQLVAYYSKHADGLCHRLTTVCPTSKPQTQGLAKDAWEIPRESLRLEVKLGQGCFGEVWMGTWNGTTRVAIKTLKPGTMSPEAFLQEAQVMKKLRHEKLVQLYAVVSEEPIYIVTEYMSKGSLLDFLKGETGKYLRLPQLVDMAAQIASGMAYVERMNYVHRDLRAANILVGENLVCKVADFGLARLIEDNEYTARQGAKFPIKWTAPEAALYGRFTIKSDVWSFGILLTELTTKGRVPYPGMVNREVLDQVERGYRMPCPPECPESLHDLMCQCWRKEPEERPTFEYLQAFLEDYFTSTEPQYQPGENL

MAPK14 [1] = target: T4, MAPK14 (Homo sapiens, UniProt Q16539); test: Phosphorylation of MAPK14, immunoblot in MV4-11 cells; format: cell-based; set-up: endogenous in cells; host or cells: K562, RS4-11, MV4-11, MOLM-13 (A17); MV4-11 (A20)
MAPK14 [2] = target: T4, MAPK14; test: Global proteomics in MOLT-4 cells; format: cell-based; set-up: global protein expression profiles of MOLT-4 cells treated with 50 nM MA191 for 5 h; endogenous in cells; host or cells: MOLT-4; settings: 50 nM, 5 h
Protocol: Proteome analyses can uncover unexpected targets of PROTACs. Since AML cells with FLT3-ITD are massively damaged by MA191, we applied it to MOLT-4 cells and analyzed them by proteomics.
MOLT4 cells were lysed using a buffer (50 mM NaCl, 8 M urea, 50 mM EPPS, pH 8.5, with phosphatase and protease inhibitors) and homogenized by bead beating (3 × 30 s at 2400 strokes/min). Protein concentration was determined using the Bradford assay. Fifty micrograms of protein per sample were reduced, alkylated, and precipitated using methanol/chloroform. The dried protein pellet was resuspended in 4 M urea/50 mM HEPES (pH 7.4) and diluted to 1 M urea with 200 mM EPPS (pH 8).
Proteins were digested with LysC and trypsin (1:50, enzyme:protein) for 12 h at 37 °C. Samples were acidified to pH 2–3 with formic acid and desalted using C18 solid-phase extraction. […]
diaPASEF raw data were analyzed using DIA-NN 1.8 in library-free mode, enabling peptide/protein identification, FDR control, protein assembly, and quantification through in silico digestion and deep learning-based predictions. […] Precursor quantification used Robust LC with RT-based cross-run normalization.
Proteins with low total abundance (<2000 × number of treatments) were excluded. […] Significant differences versus control were assessed using two-sided moderated t-tests via the limma package in R framework (R Development Core Team, 2014). […]

Tracer bound (EPHB2) [%] | remaining activity at 1 µM (HCK) [%] | remaining activity at 1 µM (MARK2) [%] | remaining activity at 1 µM (ALK) [%] | remaining activity at 1 µM (DDR1) [%] | remaining activity at 1 µM (EPHB1) [%] | remaining activity at 1 µM (IGF1R) [%] | remaining activity at 1 µM (MAPK11) [%] | remaining activity at 1 µM (SRC) [%] | phosphorylated MAPK14 (p-MAPK14) (MAPK14 [1]) | MAPK14 protein level, proteome analysis (MAPK14 [2]) | SMILES | IC50 (MOLM-13) [nM]
 |  |  |  |  |  |  |  |  |  |  | Cc1ncsc1-c1ccc([C@H](C)NC(=O)[C@@H]2C[C@@H](O)CN2C(=O)[C@@H](NC(=O)CCOCCOCCOCCNC(=O)c2cc(Oc3ccc(NC(=O)Nc4cc(C(C)(C)C)on4)cc3)ccn2)C(C)(C)C)cc1 [MA49, reference compound] | 4.8 ± 3.7
49.5 | 120 | 112 | 109 | 4 | 27.7 | 111 | 24 | 120 |  |  | CNC(=O)c1cc(Oc2ccc(NC(=O)Nc3cc(C(C)(C)C)on3)cc2)ccn1 [MA68, reference compound] | 
120.0 | 120 | 110 | 105 | 85.7 | 85.1 | 107 | 96.2 | 120 | loss of p-MAPK14 together with MAPK14 | striking downregulation of MAPK14 | Cc1ncsc1-c1ccc([C@H](C)NC(=O)[C@@H]2C[C@@H](O)CN2C(=O)[C@@H](NC(=O)[C@H]2CC[C@H](C(=O)N3CCN(CCNC(=O)c4cc(Oc5ccc(NC(=O)Nc6cc(C(C)(C)C)on6)cc5)ccn4)CC3)CC2)C(C)(C)C)cc1 [MA191, 4-(4-(3-(5-(tert-Butyl)isoxazol-3-yl)ureido)phenoxy)-N-(2-(4-(trans-4-(((S)-1-((2S,4R)-4-hydroxy-2-(((S)-1-(4-(4-methylthiazol-5-yl)phenyl)ethyl)carbamoyl)pyrrolidin-1-yl)-3,3-dimethyl-1-oxobutan-2-yl)carbamoyl)cyclohexanecarbonyl)piperazin-1-yl)ethyl)picolinamide] | 
